Experimental data reported in ChEMBL document CHEMBL1201862, “PubChem BioAssay data set” (2004).
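Values below derive from 48-hour exposures of cells grown in 96-well plates, with endpoints linearly interpolated between the two concentrations bracketing the appropriate inhibition level. Abbreviation: GI50, concentration required for 50% inhibition of growth.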 Calls of active or inactive are those of the source. Rule as the data show it: active = GI50 up to about 1.1 µM and inactive = higher.

Columns and labels:
Assay in all cases: NCI anticancer screen, dose series, 48 h
A549 = system: A549
KM12 = system: KM12
PC-3 = system: PC-3
MCF7 = system: MCF7
SNB-19 = system: SNB-19
U-251 = system: U-251
CCRF-CEM = system: CCRF-CEM
SW-620 = system: SW-620
SR = system: SR
UO-31 = system: UO-31
EKVX = system: EKVX
HCT-116 = system: HCT-116
IGROV-1 = system: IGROV-1
MDA-N = system: MDA-N
SNB-75 = system: SNB-75
MOLT-4 = system: MOLT-4
UACC-257 = system: UACC-257
HOP-92 = system: HOP-92
HL-60 = system: HL-60
HCT-15 = system: HCT-15

Measured: GI50

O=C(/C=C/c1ccc2c(c1)OCO2)NCCc1ccco1
inactive: A549 89.5 µM | KM12 > 100 µM | PC-3 50.8 µM | MCF7 49.4 µM | SNB-19 > 100 µM | U-251 > 100 µM | CCRF-CEM 59.8 µM | SW-620 > 100 µM | SR 18.5 µM | UO-31 41 µM | EKVX 73.3 µM | HCT-116 68.9 µM | IGROV-1 19.5 µM | MDA-N > 100 µM | SNB-75 > 100 µM | MOLT-4 48.9 µM | UACC-257 49.8 µM | HOP-92 92.7 µM

COc1ccc(Oc2nc(C#CC(C)(C)O)nc(Oc3ccc(OC)cc3)n2)cc1
inactive: A549 15.1 µM | KM12 14 µM | PC-3 2.52 µM | MCF7 1.51 µM | SNB-19 20 µM | U-251 3.82 µM | CCRF-CEM 1.43 µM | SW-620 1.84 µM | UO-31 1.55 µM | EKVX 16 µM | HCT-116 2.82 µM | IGROV-1 5.45 µM | MDA-N 8.55 µM | SNB-75 15.1 µM | MOLT-4 1.53 µM | UACC-257 17.9 µM
active: HL-60 1.07 µM | SR 0.625 µM
1.34 µM: HCT-15

CN(C)S(=O)(=O)n1cnc(CO)c1
inactive: A549 > 100 µM | KM12 > 100 µM | PC-3 > 100 µM | MCF7 > 100 µM | SNB-19 > 100 µM | U-251 > 100 µM | SW-620 > 100 µM | UO-31 > 100 µM | EKVX > 100 µM | HCT-116 > 100 µM | IGROV-1 > 100 µM | MDA-N > 100 µM | SNB-75 > 100 µM | MOLT-4 > 100 µM | UACC-257 > 100 µM | HOP-92 > 100 µM
> 100 µM: HCT-15

S=c1[nH]nc(COc2ccc3c(c2)CCCC3)n1/N=C/c1ccc(Cl)cc1
inactive: A549 18.7 µM | KM12 16.3 µM | HL-60 18.2 µM | PC-3 14.9 µM | MCF7 11.8 µM | SNB-19 19.5 µM | U-251 19.1 µM | CCRF-CEM 32.1 µM | SW-620 17.4 µM | UO-31 17.1 µM | EKVX 19.1 µM | HCT-116 14.5 µM | IGROV-1 16.4 µM | MDA-N 17.7 µM | MOLT-4 19.4 µM | UACC-257 22.6 µM | HOP-92 14.7 µM
20.4 µM: HCT-15

O=c1[nH]nc(NNc2ccccc2)c2nnn(C3CCCCC3)c12
inactive: A549 > 100 µM | KM12 > 100 µM | HL-60 > 100 µM | PC-3 > 100 µM | MCF7 > 100 µM | SNB-19 > 100 µM | U-251 > 100 µM | CCRF-CEM > 100 µM | SR > 100 µM | UO-31 > 100 µM | EKVX > 100 µM | HCT-116 > 100 µM | MDA-N > 100 µM | MOLT-4 > 100 µM | UACC-257 > 100 µM | HOP-92 > 100 µM
96.2 µM: HCT-15

CCOC(=O)CCC(NC(=O)OCc1ccccc1)C(=O)NC(CCC(=O)OCC)C(=O)NC(CCC(=O)OCC)C(=O)NC(CCC(=O)OCC)C(=O)NC(CCC(=O)OCC)C(=O)NC(CCC(=O)OCC)C(=O)NC(CCC(=O)OCC)C(=O)OCC (configuration not stated)
> 100 µM: HCT-15
inactive: A549 > 100 µM | HL-60 > 100 µM | PC-3 > 100 µM | MCF7 > 100 µM | SNB-19 > 100 µM | U-251 > 100 µM | CCRF-CEM 72.9 µM | SW-620 > 100 µM | SR 70.8 µM | UO-31 79.4 µM | HCT-116 > 100 µM | MDA-N > 100 µM | SNB-75 40.5 µM | MOLT-4 > 100 µM | UACC-257 > 100 µM

CCP(=O)(CC)C(Cl)(Cl)C(=O)NC
inactive: A549 > 100 µM | HL-60 > 100 µM | PC-3 > 100 µM | SNB-19 > 100 µM | U-251 > 100 µM | CCRF-CEM > 100 µM | SW-620 > 100 µM | SR > 100 µM | UO-31 > 100 µM | HCT-116 > 100 µM | IGROV-1 > 100 µM | MDA-N > 100 µM | SNB-75 > 100 µM | MOLT-4 > 100 µM | UACC-257 > 100 µM | HOP-92 > 100 µM
> 100 µM: HCT-15

CN1CCC2(CC1)C(=O)N(N1CCCCCC1)C(=O)N2c1ccccc1
inactive: A549 > 100 µM | KM12 > 100 µM | HL-60 > 100 µM | PC-3 77.8 µM | MCF7 > 100 µM | SNB-19 > 100 µM | U-251 > 100 µM | CCRF-CEM > 100 µM | SW-620 > 100 µM | SR > 100 µM | UO-31 > 100 µM | EKVX > 100 µM | HCT-116 18.2 µM | IGROV-1 > 100 µM | MDA-N > 100 µM | SNB-75 31.9 µM | MOLT-4 > 100 µM | UACC-257 > 100 µM
> 100 µM: HCT-15

CS(=O)(=O)OCC(CCl)(CCl)CCl
inactive: A549 > 100 µM | KM12 > 100 µM | PC-3 > 100 µM | MCF7 > 100 µM | SNB-19 > 100 µM | U-251 > 100 µM | CCRF-CEM > 100 µM | SW-620 > 100 µM | SR > 100 µM | UO-31 > 100 µM | HCT-116 > 100 µM | MDA-N > 100 µM | SNB-75 > 100 µM | MOLT-4 > 100 µM | UACC-257 > 100 µM | HOP-92 > 100 µM
> 100 µM: HCT-15

CN(C)Cc1cc(/C=C/C(=O)c2ccc(Cl)c(Cl)c2)cc(CN(C)C)c1O
inactive: A549 15.9 µM | KM12 13.1 µM | HL-60 3.9 µM | PC-3 12.4 µM | MCF7 12.9 µM | SNB-19 15 µM | CCRF-CEM 5.02 µM | SW-620 12.9 µM | UO-31 6.46 µM | EKVX 15.6 µM | HCT-116 12.8 µM | IGROV-1 9.98 µM | MDA-N 11.2 µM | SNB-75 9.12 µM | MOLT-4 10.1 µM | UACC-257 12.1 µM

Cc1c2ccccc2nc2[nH]c3ccncc3c12
26.5 µM: HCT-15
active: CCRF-CEM 0.957 µM
inactive: A549 30.7 µM | KM12 26.6 µM | HL-60 26.9 µM | PC-3 38.3 µM | SNB-19 36.1 µM | U-251 30.1 µM | SW-620 23.9 µM | SR 26.9 µM | UO-31 25.9 µM | EKVX 13.9 µM | IGROV-1 29.5 µM | MDA-N 35 µM | SNB-75 86.3 µM | MOLT-4 > 100 µM | UACC-257 52.1 µM | HOP-92 33 µM
